Results: PMC10542788, “Discovery of a cystathionine γ-lyase (CSE) selective inhibitor targeting active-site pyridoxal 5′-phosphate (PLP) via Schiff base formation” (Scientific Reports, 2023)

Legend:
rCSE = rCSE (Rattus norvegicus, UniProt P18757); assay: Live-cell fluorescence imaging of sulfane sulfur with SSP4 in rCSE-expressing COS-7 cells; assay type: cell-based; conditions: COS-7 cells expressing rCSE, 1000 µM
Protocol: Finally, we evaluated the inhibitory activity of 1 towards rCSE in cells. […] So, we prepared COS-7 cells expressing rCSE, treated them with 1 at various concentrations (0, 100, 300 and 1000 µM), and performed fluorescence imaging of sulfane sulfur with SSP4. […] Thus, this inhibitor is available for live-cell experiments.
COS-7 cells were maintained in Dulbecco’s modified Eagle’s medium (DMEM) containing 10% fetal calf serum (FBS) and 1% penicillin streptomycin in a humidified atmosphere at 37 °C. The cells were seeded in 6 cm dishes at a density of 5 × 10^5 cells per dish. Transient transfection was performed with Lipofectamine 3000 (Thermo Fisher Scientific). Briefly, 2.5 µg plasmid, 5 µL P3000 reagent, and 7.5 µL Lipofectamine 3000 reagent were mixed in Opti-MEM, and the mixture was added to the cells. After incubation for 24 h, transfected COS-7 cells were re-seeded in eight-well chamber slides (µ-Slide 8 well high, ibidi GmbH) at a density of 4 × 10^4 cells per well. […] Excess probe was removed and the cells were washed with HBSS, then fluorescence images were captured using a Nikon A1R + confocal laser scanning microscope with an ECLIPSE Ti-E inverted microscope and a 20 × objective lens. […] Fluorescence intensity of images was calculated by using NIS-Elements software (Nikon).

MGL = MGL inhibition, HSip-1 fluorescence; assay type: biochemical; conditions: 30 µM
Protocol: The selectivity of 1, 2 and PAG for rCSE over other RSS-producing enzymes, CBS and 3MST, was examined (Fig. 4a). CBS is a PLP-dependent enzyme, like CSE, and produces H2S from cysteine and homocysteine as substrates. 3MST is also an H2S-producing enzyme, but is not PLP-dependent and uses 3-mercaptopyruvate as a substrate. The amount of H2S produced by CBS or 3MST was evaluated in the presence or absence of the inhibitor by measuring the fluorescence intensity of HSip-1. […] We also examined the inhibitory activity towards two other PLP-dependent enzymes, MGL and ALT. MGL metabolizes L-methionine to α-ketobutyric acid, methanethiol and ammonia, and is inhibited by PAG[14]. MGL also produces H2S from homocysteine as a substrate, and this activity of MGL can be measured by fluorescence detection with HSip-1. […] The enzymatic activity of ALT can be assessed by means of a coupled assay using the reduction of pyruvate to L-lactate with lactate dehydrogenase and NADH and measuring the change in absorption of NADH.
10 µL of 200 µM homocysteine in 30 mM HEPES (pH 7.4) was added to 10 µL of a solution containing 20 µg/mL MGL (Sigma-Aldrich), 100 µM PLP, 1 µM HSip-1, 0.005% tween 20 and various concentrations of the inhibitor (0.5% DMSO as a cosolvent). The mixture was incubated at 25 °C for 100 min and the fluorescence intensity of HSip-1 was measured with a microplate reader.

rat CSE (rCSE) = target: T1, rat CSE (rCSE) (Rattus norvegicus, UniProt P18757); assay: rCSE inhibition, H2S detection by fluorescence of HSip-1; assay type: biochemical
T1 construct: His-tag (C); made in house; host or cells: E. coli BL21
Protocol: The developed assay system employs a plate reader to detect H2S production by CSE as a fluorescence signal in a solution containing 30 μg/mL rat CSE (rCSE), 1 μM HSip-1, 100 μM pyridoxal-5′-phosphate (PLP) and 1.5 mM cysteine (a substrate) in a 384-well plate format (Fig. 1b). A large amount of rCSE was expressed in E. coli and purified on a Ni Sepharose 6 Fast Flow module. We then performed screening of a chemical library consisting of 161,600 compounds (from the Drug Discovery Initiative, the University of Tokyo) for CSE inhibitors (Fig. 1c). […] Then, a confirmation test for repeatability (n = 4) of the 160 compounds selected in the 1st screening was performed to exclude false-positives. In this step, we also excluded cysteine-reactive compounds by changing the addition order of the rCSE and cysteine (substrate) solutions. In other words, in the 1st screening, the enzyme solution was firstly added to each library compound, while in the confirmation test for repeatability of the hit compounds in the 1st screening, we firstly added the cysteine solution to each compound. This enabled us to identify and exclude cysteine-reactive compounds, based on their reaction with the added cysteine. These procedures left 80 compounds showing both more than 40% inhibition at 10 µM and similar % inhibition of rCSE irrespective of the addition order of the rCSE and cysteine solutions. In the 2nd screening, we examined the reactivity of these 80 compounds with H2S using an H2S donor[17] to exclude H2S-reactive compounds. […] In this assay, we selected 13 compounds which were non-reactive to H2S, but one was relatively unstable and two of them were the same compound, so that 11 compounds were finally selected. These compounds included some hydrazine and hydrazide derivatives, so we performed titration assay of the selected 11 compounds together with 9 commercially available hydrazine and hydrazide compounds (Supplementary Fig. S3) and calculated the half-maximal (50%) inhibitory concentration (IC50) of each compound.
The fluorescence intensity of HSip-1 was measured (λex = 490 nm, λem = 510 nm) with a microplate reader (EnVision, Perkin Elmer).
10 µL of 1.5 mM cysteine solution in 30 mM HEPES (pH 7.4) was added to 10 µL of solution containing 30 µg/mL rCSE, 100 µM PLP, 1 µM HSip-1, 0.005% tween 20 and the test compound (0.5% DMSO as a cosolvent). The mixture was incubated at 25 °C for 3 h and the fluorescence intensity of HSip-1 was measured with a microplate reader.

T1 sequence (P18757 whole entry): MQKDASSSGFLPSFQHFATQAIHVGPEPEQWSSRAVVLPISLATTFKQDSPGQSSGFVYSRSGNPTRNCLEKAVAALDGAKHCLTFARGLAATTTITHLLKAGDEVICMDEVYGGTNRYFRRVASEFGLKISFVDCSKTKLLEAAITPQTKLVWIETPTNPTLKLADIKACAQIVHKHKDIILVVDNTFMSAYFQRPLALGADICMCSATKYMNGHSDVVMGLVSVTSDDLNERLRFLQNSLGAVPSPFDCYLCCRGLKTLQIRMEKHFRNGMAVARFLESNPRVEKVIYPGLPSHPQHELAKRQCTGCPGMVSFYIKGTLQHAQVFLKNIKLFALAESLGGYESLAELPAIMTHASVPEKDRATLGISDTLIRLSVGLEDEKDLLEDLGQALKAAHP
rCSE, sequence (P18757 whole entry): as above

Compound: NNC(=O)C(N)=O [Compound 1, oxamic hydrazide]
- SSP4 fluorescence intensity (sulfane sulfur) in cells (rCSE): almost completely suppressed
- inhibitory activity towards MGL / selectivity for CSE over MGL (MGL): high selectivity for CSE over MGL and ALT
- IC50 (rat CSE (rCSE); fluorescence assay with HSip-1, 1.5 mM cysteine, 100 μM PLP, mean ± S.E., read-out: IC50, inhibitory activity towards rCSE): 13 ± 1 µM
- selectivity for CSE among the compounds examined (1, 2, PAG) (rat CSE (rCSE); versus CBS, 3MST, MGL and ALT): highest selectivity for CSE
